According to US9782464B2, “Methods and compositions for inhibiting diseases of the central nervous system” (Board of Regents of the University of Nebraska, priority 2008, dated 2017):

Legend:
[1] = system: SPC (spleen cells); assay: Antigen-specific 3H-thymidine proliferation of SPC from immunized mice; type: cell-based, mouse; settings: B10.BR mice immunized in CFA/IFA
[2] = system: anti-CD3 stimulated T cells; assay: Proliferation of anti-CD3 activated T cells with 4YSyn or N-4YSyn; type: cell-based, mouse; settings: 1, 3, 10 and 30 μg/ml
Procedure: For proliferation analyses, purified T cells from naive B6 mice were plated with SPC irradiated at 3000 rad (1:3) at 2×10^6 cells/ml in complete RPMI tissue culture media and activated with anti-CD3 (0.5 μg/ml, 145-2C11; BD Pharmingen) in U-bottom 96-well tissue culture plates. Graded concentrations of 4YSyn or N-4YSyn were added to quadruplicate wells. After activation for 3 days, ^3H-thymidine incorporation was performed as described previously.

[3] = system: anti-CD3 stimulated T cells; assay: PI uptake cytotoxicity of anti-CD3 stimulated T cells (flow cytometry); type: cell-based, mouse; settings: 24 hours
Procedure: To assess α-Syn-mediated cytotoxicity, purified T cells were stimulated with anti-CD3 and cultured at a density of 1×10^6 cells/ml for 24 hours in media alone or in the presence of 4YSyn or N-4YSyn at concentrations of 1, 3, 10, or 30 μg/ml. Cells were stained with PI, washed and the percentages of PI^+ dead cells and MFI were analyzed by flow cytometry.

[4] = system: MES23.5 cells; assay: Cathepsin B inhibition and neurotoxicity, microglial supernatants on MES23.5 cells; type: cell-based; settings: inhibitor 1 μM, N-α-syn 100 nM
Procedure: MES 23.5 cells were cultured in 75-cm^2 flasks in DMEM/F12 with 15 mM HEPES (Invitrogen) containing N2 supplement (Invitrogen), 100 U/ml of penicillin, 100 μg/ml streptomycin, and 5% FBS. MES23.5 cells is a cell line derived using somatic cell fusion of rat embryonic mesencephalon cells and the murine neuroblastoma-glioma cell line N18TG2 that produce dopamine and express tyrosine hydroxylase (Crawford et al. (1992) J. Neuroscience 12:3392-3398). Cells were grown to 80% confluence then plated at a density of 10×10^4 cells on sterile glass coverslips. Microglia were plated in 6 well plates and incubated for 1 hour with or without 1 μM of cathepsin B inhibitors, CA-074 [cell impermeable] or CA-074 Me [cell permeable] (Sigma), in a 37° C., 5% CO2 incubator to inhibit residual cathepsin B expression (Gan et al. (2004) J. Biol. Chem., 279:5565-5572). […] MES 23.5 cell viability was assessed using the Live/Dead cytotoxicity assay (Invitrogen) as previously described. Live cells were distinguished by the uptake of calcein AM to acquire a green fluorescence [excitation/emission (ex/em) 495/515 nm], while dead cells acquired a red fluorescence (ex/em 495/635 nm) due to the uptake of ethidium homodimer-1 (EthD-1). Cell enumerations were performed using fluorescence microscopy (200× magnification, n=6 wells per group, 3 frames per well).

[5] = system: TH+ neurons in the SN; assay: Chronic MPTP intoxication, TH+ neuron counts in SN of WT and SCID mice; type: in vivo, mouse
Procedure: For chronic intoxication, B6 mice received 5 intraperitoneal (i.p.) injections at 24 hour intervals for 5 days of either vehicle (PBS, 10 ml/kg) or MPTP-HCl (30 mg/kg of free base in PBS) (Sigma-Aldrich, St. Louis, Mo.). For acute intoxication, mice received 4 i.p. injections, one every 2 hours, of either vehicle (PBS, 10 ml/kg) or MPTP-HCl (18 mg/kg of free base in PBS for B10.BR mice, 14 or 18 mg/kg for B6 mice). At selected time points following MPTP intoxication, mice were sacrificed and brains processed for subsequent analyses. MPTP handling and safety measures were in accordance with published guidelines (Przedborski et al. (2001) J. Neurochem., 76:1265-1274).
At the time points indicated following MPTP intoxication, mice were transcardially perfused with 4% paraformaldehyde (PFA) in 0.1 M PBS using 0.9% saline as vascular rinse. Brains were post-fixed in 4% PFA overnight, kept in 30% sucrose for 2 days, snap frozen, embedded in OCT compound, and […] sections cut on a cryostat (CM1900, Leica, Bannockburn, Ill.). The sections were collected in PBS and processed free-floating. […] Fluoro-Jade C (Chemicon International, Inc., Temecula, Calif.) was used to stain degenerating neurons (Schmued et al. (2005) Brain Res., 1035:24-31) and was detected as green fluorescence by fluorescence microscopy with FITC filter (Eclipse E800, Nikon, Inc., Melville, N.Y.). […]

[6] = system: MPTP-intoxicated B10.BR mice; assay: Adoptive transfer of immune SPC or T cells to MPTP-treated B10.BR mice; type: in vivo, mouse
[7] = system: MPTP-intoxicated B6 mice; assay: Adoptive transfer of immune SPC to MPTP-treated B6 mice; type: in vivo, mouse; settings: day 7
[8] = system: MPTP-intoxicated mice; assay: Adoptive transfer of N-4YSyn and VIP SPC or Treg to MPTP-intoxicated mice (Example 6); type: in vivo, mouse
Procedure: (§1) Recombinant C-terminal tail of α-syn (4YSyn) was purified, nitrated (N-4YSyn), and tested for endotoxin as described. Male C57BL/6J mice and FoxP3-GFP knock in C57BL/6J mice (5 weeks old, The Jackson Laboratory) were immunized with N-4YSyn emulsified in adjuvant as described. […] Recipient mice received four i.p. injections at 2 hour intervals of either vehicle (PBS, 10 mL/kg bodyweight) or MPTP-HCl (16 mg MPTP/kg bodyweight of free base in PBS; Sigma-Aldrich). Twelve hours after the last injection, MPTP-intoxicated mice received adoptive transfers of whole SPC, Treg or no cells (n=5-7 mice per group per time point). On days 2 and 7 post-MPTP, mice were sacrificed and brains were processed for analysis. […] MPTP safety measures were in accordance with published guidelines (Przedborski et al. (2001) J. Neurochem., 76:1265-1274).
Seven days following treatment, mice were sacrificed and single cell suspensions were prepared from inguinal lymph nodes and spleens. CD4+ T cell populations from spleens and lymph nodes were enriched by negative selection with CD4-enrichment columns (R & D Systems) followed by CD25-PE positive selection with AutoMACS (Miltenyi Biotec). […] Proliferation and inhibition assays were performed as described. MPTP-intoxicated mice received an i.v. tail injection of 5×10^7 SPC or 1×10^6 Treg in 0.25 ml of HBSS.
Mice were transcardially-perfused with PBS followed by 4% paraformaldehyde (PFA, Sigma). Frozen midbrain sections (30 μm) were immunostained for Mac-1 (CD11b, 1:1000; Serotec). Fluorojade C staining (Millipore) was performed on adjacent sections according to manufacturer's protocol to assess degenerating neurons and quantified using ImageJ. Overall dopaminergic neuron survival was assessed seven days following MPTP intoxication and resolution of cell death processes with polyclonal antibody to mouse Tyrosine hydroxylase (TH), 1:1000 (Calbiochem) and counterstained for Nissl substance by thionin staining (Tieu et al. (2003) J. Clin. Invest., 112:892-901) as previously described (Benner et al. (2004) Proc. Natl. Acad. Sci., 101:9435-9440). Total numbers of Mac-1^+ cells, […] and Nissl-stained neurons in the SNpc were estimated by stereological analysis with StereoInvestigator software (MicroBrightfield) using the optical fractionator module (Liberatore et al. (1999) Nat. Med., 5:1403-1409). Quantitation of striatal TH (1:500; Calbiochem) was performed by densitometric analysis as described (Benner et al. (2004) Proc. Natl. Acad. Sci., 101:9435-9440). Adjacent midbrain sections were immunostained for CD4 (L3T4; 1:200, BD Pharmingen). Sections were incubated in streptavidin-horseradish peroxidase (HRP) solution (ABC Elite vector kit, Vector Laboratories), and color developed using a generation system consisting of diaminobenzidine (DAB) chromogen (Sigma-Aldrich) as described (Benner et al. (2004) Proc. Natl. Acad. Sci., 101:9435-9440).

[9] = system: MPTP-intoxicated mice; assay: Adoptive transfer of polarized N-4YSyn CD4+ T cell subsets to MPTP-intoxicated mice; type: in vivo, mouse; settings: 7 days after MPTP
Procedure: as §1
CD4+ T cells were isolated from N-4YSyn immunized donors and cultured 1×10^6/ml CD4+ T cells with 2×10^6/ml irradiated SPC and […] N-4YSyn in 20 ml of complete RPMI 1640 supplemented with 10% FBS, 2 mM L-glutamine, 10 mM HEPES, 55 μm 2-mercaptoethanol, 100 units/ml penicillin, and 100 μg/ml streptomycin in T25 flasks. […]
Mice were transcardially-perfused with PBS followed by 4% paraformaldehyde (PFA, Sigma). […] Fluorojade C staining (Millipore) was performed on adjacent sections according to manufacturer's protocol to assess degenerating neurons and quantified using ImageJ. Overall dopaminergic neuron survival was assessed seven days following MPTP intoxication and resolution of cell death processes with polyclonal antibody to mouse Tyrosine hydroxylase (TH), 1:1000 (Calbiochem) and counterstained for Nissl substance by thionin staining (Tieu et al. (2003) J. Clin. Invest., 112:892-901) as previously described (Benner et al. (2004) Proc. Natl. Acad. Sci., 101:9435-9440). […] Quantitation of striatal TH (1:500; Calbiochem) was performed by densitometric analysis as described (Benner et al. (2004) Proc. Natl. Acad. Sci., 101:9435-9440). […]

[10] = system: B6 SOD1 Tg mice; assay: COP-1 immunization of B6 SOD1 Tg mice

## 4YSyn: recombinant His-tagged C-terminal 40 aa α-Syn fragment containing all four tyrosine residues, non-nitrated
[1]
  proliferative response of SPC to in vitro stimulation with the antigen: no significant immune responses
[2]
  proliferation of anti-CD3 stimulated T cells: not inhibited
[3]; 1 μg/ml
  % PI+ T cells: 4.9%
  MFI of PI-stained T cells: 32.3
[3]; 3 μg/ml
  % PI+ T cells: 6%
  MFI of PI-stained T cells: 34.1
[3]; 10 μg/ml
  % PI+ T cells: 4.7%
  MFI of PI-stained T cells: 25.2
[3]; 30 μg/ml
  % PI+ T cells: 4.2%
  MFI of PI-stained T cells: 26.8

## CCCNC(=O)[C@H]1O[C@@H]1C(=O)N[C@H](C(=O)N1CCC[C@H]1C(=O)O)[C@@H](C)CC [CA-074]
[4]
  protection of DA cells v. N-α-syn alone: 53%

## CN1CC=C(c2ccccc2)CC1 [MPTP, 1-methyl-4-phenyl-1,2,3,6-tetrahydropyridine]
[5]; SCID mice
  numbers of TH+ neurons compared to PBS: No significant difference
[5]; WT B6 mice, 21 days after last injection
  reduction in numbers of TH+ neurons in the SN compared to PBS: 33%
[6]; MPTP-treated B10.BR mice, stereology
  reduction of SN TH+ neurons compared to PBS controls: 45%
[6]; SN of MPTP-treated B10.BR mice, mean±SEM
  Counts of Mac-1+ microglia: 27.7±3.2 /mm^2
[7]
  loss of TH+ nigral neurons compared to PBS-treated controls: 43%
[8]; 2 days post-MPTP
  increase in numbers of Mac-1+ cells within the SNpc compared with PBS controls: greater than 16 fold
[8]; 7 days after MPTP, FIG. 35C
  loss of nigral TH+ neurons compared with PBS controls: 45%
[8]; 7 days after MPTP, FIG. 38B
  reduction of SNpc TH+ neurons compared with PBS controls: 48%
[8]; 7 days after MPTP, FIG. 38C
  Striatal TH+ density: 16 % of PBS controls
[8]; MPTP mice, FIG. 38D, Treg co-transferred with N-4YSyn SPC
  TH+ neuron survival: 49%
[9]
  TH density within the striatum: 26 % of PBS-treated controls
  loss of TH+ neurons vs PBS-treated controls: 25%
  total TH+ neurons within the SNpc: 5971±250

## glatiramer acetate [COP-1]
[10]; 75 μg s.c. every other week
  increase of mean age of survival compared to PBS controls: 6.1%
[10]; 75 μg s.c. weekly
  increase of mean age of survival compared to PBS controls: 9.9%
